≈ marks a conversion by molar mass, not a printed value.
Key:
[1] = system: Mycobacterium tuberculosis; assay: Antitubercular activity against Mycobacterium tuberculosis H37Rv ATCC 27294 assessed as growth inhibition at 6.25 ug/ml by broth dilution assay relative to control; type: functional; conditions: read-out: GI
[2] = system: Mycobacterium intracellulare; assay: Antibacterial activity against Mycobacterium intracellulare after 7 days by two fold dilution assay; type: functional; conditions: 168 h
Mycobacteroides chelonae = assay: Antibacterial activity against Mycobacterium chelonae after 7 days by two fold dilution assay; type: functional; conditions: 168 h
[3] = system: Mycolicibacterium smegmatis; assay: Antibacterial activity against Mycobacterium smegmatis after 7 days by two fold dilution assay; type: functional; conditions: 168 h
Mycobacterium xenopi = assay: Antibacterial activity against Mycobacterium xenopi after 7 days by two fold dilution assay; type: functional; conditions: 168 h
[4] = system: Mycobacterium tuberculosis; assay: Antitubercular activity against non-replicating Mycobacterium tuberculosis H37Rv after 10 days by low oxygen recovery assay; type: functional; conditions: 240 h
[5] = system: Mycobacterium tuberculosis; assay: Antitubercular activity against replicating Mycobacterium tuberculosis H37Rv by Alamar Blue assay; type: functional
[6] = system: Mycobacterium tuberculosis; assay: Potency index, ratio of MIC for MXFX to MIC for test compound for antitubercular activity against non-replicating Mycobacterium tuberculosis H37Rv after 10 days by low oxygen recovery assay; type: functional
[7] = system: Mycobacterium intracellulare; assay: Potency index, ratio of MIC for LVFX to MIC for test compound for antitubercular activity against Mycobacterium intracellulare after 14 days by two fold agar dilution method; type: functional
Mycobacterium avium [8] = assay: Antitubercular activity against Mycobacterium avium after 14 days by two fold agar dilution method; type: functional; conditions: 336 h
[9] = system: Mycobacterium tuberculosis; assay: Antitubercular activity against rifampicin-sensitive Mycobacterium tuberculosis after 21 days by two fold agar dilution method; type: functional; conditions: 504 h
[10] = system: Mycobacterium tuberculosis; assay: Potency index, ratio of MIC for rifampicin to MIC for test compound for antitubercular activity against rifampicin-sensitive Mycobacterium tuberculosis after 21 days by two fold agar dilution method; type: functional
[11] = system: Mycobacterium tuberculosis; assay: Potency index, ratio of MIC for isoniazid to MIC for test compound for antitubercular activity against rifampicin-sensitive Mycobacterium tuberculosis after 21 days by two fold agar dilution method; type: functional
[12] = system: Mycobacterium tuberculosis; assay: Potency index, ratio of MIC for LVFX to MIC for test compound for antitubercular activity against rifampicin-sensitive Mycobacterium tuberculosis after 21 days by two fold agar dilution method; type: functional
[13] = system: Mycobacterium intracellulare; assay: Antitubercular activity against Mycobacterium intracellulare after 14 days by two fold agar dilution method; type: functional; conditions: 336 h
[14] = system: Mycobacterium intracellulare; assay: Potency index, ratio of MIC for GTFX to MIC for test compound for antitubercular activity against Mycobacterium intracellulare after 14 days by two fold agar dilution method; type: functional
Mycobacterium avium [15] = assay: Potency index, ratio of MIC for isoniazid to MIC for test compound for antitubercular activity against Mycobacterium avium after 14 days by two fold agar dilution method; type: functional
Mycobacterium avium [16] = assay: Potency index, ratio of MIC for LVFX to MIC for test compound for antitubercular activity against Mycobacterium avium after 14 days by two fold agar dilution method; type: functional
[17] = system: Mycobacterium intracellulare; assay: Potency index, ratio of MIC for isoniazid to MIC for test compound for antitubercular activity against Mycobacterium intracellulare after 14 days by two fold agar dilution method; type: functional
Mycobacterium avium [18] = assay: Potency index, ratio of MIC for rifampicin to MIC for test compound for antitubercular activity against Mycobacterium avium after 14 days by two fold agar dilution method; type: functional
Mycobacterium avium [19] = assay: Potency index, ratio of MIC for GTFX to MIC for test compound for antitubercular activity against Mycobacterium avium after 14 days by two fold agar dilution method; type: functional
[20] = Cytotoxicity against African green monkey Vero cells after 72 hrs by MTT assay; type: cell-based; conditions: chlorocebus sabaeus
[21] = system: Mycobacterium tuberculosis; assay: Antitubercular activity against Mycobacterium tuberculosis H37Rv after 21 days by broth dilution assay; type: functional; conditions: 504 h
[22] = system: Mycobacterium tuberculosis; assay: Antibacterial activity against Mycobacterium tuberculosis H37Rv after 7 days by two fold dilution assay; type: functional; conditions: 168 h
[23] = system: Mycobacterium tuberculosis; assay: Antitubercular activity against Mycobacterium tuberculosis H37Rv by serial dilution assay; type: functional
Corynebacterium [24] = assay: Antibacterial activity against Corynebacterium ATCC-29355 after 18 hrs by broth microdilution assay; type: functional; conditions: ATCC-29355, 18 h
Staphylococcus aureus = assay: Antibacterial activity against Staphylococcus aureus after 18 hrs by broth microdilution assay; type: functional
Corynebacterium [25] = assay: Antibacterial activity against Corynebacterium ATCC-25365 after 18 hrs by broth microdilution assay; type: functional; conditions: ATCC-25365, 18 h
[26] = system: Mycolicibacterium smegmatis; assay: Antibacterial activity against Mycobacterium smegmatis by NCCLS method; type: functional
[27] = system: Mycolicibacterium fortuitum; assay: Antitubercular activity against Mycobacterium fortuitum ATCC 6841 by NCCLS method; type: functional
[28] = system: Mycolicibacterium smegmatis; assay: Potency index, ratio of MIC for SPFX to MIC for test compound for antibacterial activity against Mycobacterium smegmatis by NCCLS method; type: functional
[29] = system: Mycolicibacterium fortuitum; assay: Potency index, ratio of MIC for SPFX to MIC for test compound for antitubercular activity against Mycobacterium fortuitum ATCC 6841 by NCCLS method; type: functional
[30] = system: Mycolicibacterium smegmatis; assay: Antitubercular activity against Mycobacterium smegmatis CMCC 93202 after 72 hrs; type: functional; conditions: CMCC 93202, 72 h
[31] = system: Mycolicibacterium smegmatis; assay: Potency index, ratio of MIC for CPFX to MIC for test compound for antitubercular activity against Mycobacterium smegmatis CMCC 93202 after 72 hrs; type: functional
[32] = system: Mycolicibacterium smegmatis; assay: Potency index, ratio of MIC for MXFX to MIC for test compound for antitubercular activity against Mycobacterium smegmatis CMCC 93202 after 72 hrs; type: functional
[33] = system: Mycolicibacterium smegmatis; assay: Potency index, ratio of MIC for rifampicin to MIC for test compound for antitubercular activity against Mycobacterium smegmatis CMCC 93202 after 72 hrs; type: functional
[34] = system: Mycolicibacterium smegmatis; assay: Potency index, ratio of MIC for 8-OMe CPFX to MIC for test compound for antitubercular activity against Mycobacterium smegmatis CMCC 93202 after 72 hrs; type: functional
[35] = Selectivity index, ratio of IC50 for African green monkey Vero cells to MIC for Mycobacterium tuberculosis H37Rv; type: toxicity
[36] = Cytotoxicity against African green monkey Vero cells after 96 hrs by MTT assay; type: cell-based; conditions: chlorocebus sabaeus
[37] = system: Mycolicibacterium smegmatis; assay: Antitubercular activity against Mycobacterium smegmatis after 30 to 32 hrs; type: functional
Mycobacterium avium [38] = assay: Antitubercular activity against Mycobacterium avium; type: functional
[39] = system: Mycobacterium tuberculosis; assay: Antitubercular activity against Mycobacterium tuberculosis H37Rv ATCC 27294 by Alamar Blue assay; type: functional
[40] = system: Mycobacterium tuberculosis; assay: Potency index, ratio of MIC for perfloxacin to MIC for test compound for antitubercular activity against Mycobacterium tuberculosis H37Rv by serial dilution assay; type: functional

CC1COc2c(N3CCN(C)CC3)c(F)cc3c(=O)c(C(=O)O)cn1c23 (stereo not drawn) [OFLOXACIN]
inhibition of growth at 6.25 µg/mL [1]: 62 to 96%

CCn1cc(C(=O)N/N=C2\C(=O)N(Cc3ccccc3)c3ccccc32)c(=O)c2ccc(C)nc21
MIC [2]: 0.625 µg/mL (≈ 1.34 µM) | MIC (Mycobacteroides chelonae): 0.625 µg/mL (≈ 1.34 µM) | MIC [3]: 0.625 µg/mL (≈ 1.34 µM) | MIC (Mycobacterium xenopi): 0.625 µg/mL (≈ 1.34 µM)

Cc1c(N2CCC(=CO)CC2)c(F)cc2c(=O)c(C(=O)O)cn(C3CC3)c12
MIC [4]: 2.95 µg/mL (≈ 7.92 µM) | MIC [5]: 0.1 µg/mL (≈ 0.269 µM) | Ratio [6]: 3.1

C[C@H]1COc2c(N3C[C@H]4CCCN[C@H]4C3)c(F)cc3c(=O)c(C(=O)O)cn1c23
Ratio [7]: 1.9 - 8.2 | MIC (Mycobacterium avium [8]): 0.2 to 1.7 µg/mL (≈ 0.516 to 4.39 µM) | MIC [9]: 0.2 to 1.7 µg/mL (≈ 0.516 to 4.39 µM) | Ratio [10]: >=6.5 - 165 | Ratio [11]: >=6.5 - 165 | Ratio [12]: >=6.5 - 165 | MIC [13]: 0.2 to 1.7 µg/mL (≈ 0.516 to 4.39 µM) | Ratio [14]: 1.9 - 8.2 | Ratio (Mycobacterium avium [15]): 3.2 - 64.2 | Ratio (Mycobacterium avium [16]): 3.2 - 64.2 | Ratio [17]: 1.9 - 8.2 | Ratio (Mycobacterium avium [18]): 3.2 - 64.2 | Ratio (Mycobacterium avium [19]): 3.2 - 64.2

CO[C@H]1/C=C/O[C@@]2(C)Oc3c(C)c(O)c4c(O)c(c(/C=N/N5CCN(C)CC5)c(O)c4c3C2=O)NC(=O)/C(C)=C\C=C\[C@H](C)[C@H](O)[C@@H](C)[C@@H](O)[C@@H](C)[C@H](OC(C)=O)[C@@H]1C [RIFAMPIN]
CC50 at 72 h [20]: 7.8 µg/mL (≈ 9.48 µM) | MIC [21]: 1 µg/mL (≈ 1.22 µM) | MIC [22]: 0.39 µg/mL (≈ 0.474 µM)

CCn1cc(C(=O)O)c(=O)c2cc(F)c(N3CCN(C)CC3)cc21 [PEFLOXACIN]
MIC [23]: 4 µg/mL (≈ 12 µM)

O=C(O)c1cn(C2CC2)c2cc(N3CCNCC3)c(F)cc2c1=O [CIPROFLOXACIN]
MIC (Corynebacterium [24]): 1 to 2 µg/mL (≈ 3.02 to 6.04 µM) | MIC (Staphylococcus aureus): 1 to 2 µg/mL (≈ 3.02 to 6.04 µM) | MIC (Corynebacterium [25]): 1 to 2 µg/mL (≈ 3.02 to 6.04 µM)

C[C@@H]1CN(c2c(F)c(N)c3c(=O)c(C(=O)O)cn(C4CC4)c3c2F)C[C@H](C)N1 [SPARFLOXACIN]
MIC [26]: 0.13 µg/mL (≈ 0.331 µM) | MIC [27]: 0.06 µg/mL (≈ 0.153 µM)

CC1(CN)CCN(c2cc3c(cc2F)c(=O)c(C(=O)O)cn3C2CC2)C1 (stereo not drawn)
Ratio [28]: >=2 | Ratio [29]: >=2 | MIC [26]: 0.06 µg/mL (≈ 0.167 µM) | MIC [27]: ≤ 0.03 µg/mL

COc1ccc2cc(C(=O)CN3CCN(c4c(F)cc5c(=O)c(C(=O)O)cn(C6CC6)c5c4OC)CC3)c(=O)oc2c1
MIC [30]: 0.25 µg/mL (≈ 0.433 µM) | Ratio [31]: 2 - 8 | Ratio [32]: 2 - 8 | Ratio [33]: 2 - 8 | Ratio [34]: 2 - 8

Cn1cc(C(=O)O)c(=O)c2cc(F)c(N3CCN(c4nnc(SCC(=O)c5ccc([N+](=O)[O-])cc5)s4)CC3)cc21
MIC (Corynebacterium [24]): 0.5 to 1 µg/mL (≈ 0.855 to 1.71 µM) | MIC (Staphylococcus aureus): 0.5 to 1 µg/mL (≈ 0.855 to 1.71 µM) | selectivity ratio [35]: > 12.2 | CC50 at 96 h [36]: > 6.1 µg/mL | MIC [21]: 0.5 µg/mL (≈ 0.855 µM) | MIC (Corynebacterium [25]): 0.5 to 1 µg/mL (≈ 0.855 to 1.71 µM)

COc1c(N2C[C@@H]3CCCN[C@@H]3C2)c(F)cc2c(=O)c(C(=O)O)cn(C3CC3)c12 [MOXIFLOXACIN]
MIC [4]: 9.19 µg/mL (≈ 22.9 µM) | MIC [5]: 0.1 µg/mL (≈ 0.249 µM)

CCn1cc(C(=O)N/N=C/c2c(Cl)cccc2Cl)c(=O)c2cc(F)c(N3CCN(C)CC3)cc21
MIC [37]: 27 µM (≈ 13.6 µg/mL)

CCn1cc(C(=O)N/N=C/c2cccc(O)c2)c(=O)c2cc(F)c(N3CCN(C)CC3)cc21
MIC [37]: 27.2 µM (≈ 12.3 µg/mL)

O=C(O)c1cn(-c2ccc(F)cc2)c2cc(N3CCNCC3)c(F)cc2c1=O [SARAFLOXACIN]
MIC (Mycobacterium avium [38]): 6.25 µg/mL (≈ 16.2 µM)

NNC(=O)c1ccncc1 [ISONIAZID]
MIC [2]: 12.5 µg/mL (≈ 91.1 µM) | MIC (Mycobacteroides chelonae): 12.5 µg/mL (≈ 91.1 µM) | CC50 at 72 h [20]: 32 µg/mL (≈ 233 µM) | MIC [21]: 1.5 µg/mL (≈ 10.9 µM) | MIC [3]: 12.5 µg/mL (≈ 91.1 µM) | MIC [22]: 0.05 µg/mL (≈ 0.365 µM) | MIC (Mycobacterium xenopi): 12.5 µg/mL (≈ 91.1 µM)

O=C(O)c1cn(-c2ccc(O)cc2)c2cc(N3CCNCC3)c(F)cc2c1=O
MIC (Mycobacterium avium [38]): 6.25 µg/mL (≈ 16.3 µM)

CC1COc2c(N3CCN(S(=O)(=O)c4ccc([N+](=O)[O-])cc4)CC3)c(F)cc3c(=O)c(C(=O)O)cn1c23 (stereo not drawn)
MIC [39]: 2.23 µg/mL (≈ 4.19 µM) | inhibition of growth at 6.25 µg/mL [1]: 99% | CC50 at 72 h [20]: > 33 µg/mL

CCn1cc(C(=O)O)c(=O)c2cc(F)c(OCCOCCOCCOCCOCCOc3cc4c(cc3F)c(=O)c(C(=O)O)cn4CC)cc21
MIC [23]: 0.8 µg/mL (≈ 1.14 µM) | Ratio [40]: 5
